Measured values reported in patent US20240368145A1, “METHODS FOR TREATING CANCER” (IMMUNIC AG, priority 2021, published 2024).

What was measured:
Assay type in all cases: cell-based
[1] = system: full length AR (AR-FL) mRNA; assay: Androgen receptor RNA level expression (qRT-PCR) in 22Rv1: AR-FL; conditions: 22Rv1, 1 μM, 48 h; for mrna remaining at 1 µM: Homo sapiens, normalized to untreated control (vehicle/DMSO)
Method: (§1) The prostate cancer cell line 22Rv1 was treated for 48 h with 1 μM Example compound 1, 1/1, 1/2, 2/1, 2/2, 2/3, 2/4, 2/5, 2/6, 2/7, 2/8, 2/9 and 2/10 and the reference compounds SR2211 and XY018 (Nat. Med. 2016; 22:488). RNA was extracted using the RNA isolation kit XS (Macherey-Nagel) and following the manufacture's manual. RNA quantity was measured with the Nanodrop before reverse transcription using Superscript II (Invitrogen #100004925). For the quantitative real-time PCR with SYBR-Green (Qiagen #204074), the following primers were used: AR forward-ACATCAAGGAACTCGATCGTATCATTGC and reverse-TTGGGCACTTGCACAGAGAT, AR-V7: forward-CCATCTTGTCGTCTTCGGAAATGTTATGAAGC and reverse-TTTGAATGAGGCAAGTCAGCCTTTCTT. The qRT-PCR proceeded as follows: denaturation for 5 min 95° C.; 40 cycles of “20 sec at 95° C. and 15 sec at 60° C.” and at the end of the last cycle, the melting temperature of the products was determined by gradually increasing it from 60° C. to 99° C. CT values from all samples were normalized to two different reference (housekeeping) genes using the mean CT value of the GAPDH and YWHAZ (reference genes). Next the values are normalized to the untreated control (vehicle/DMSO).

IFNγ = assay: Cytokine assay, human PBMC stimulated with PHA: IFNγ; conditions: PHA-activated, 48 hours, read-out: IFNγ inhibition (IC50 range)
Method: (§2) Peripheral blood mononuclear cells (PBMC) from healthy human donors were purified using Accuspin™ System-Histopaque-1077 (Sigma) according to the protocol recommended by the manufacturer. Purified PBMC were then washed twice with phosphate-buffered saline (PBS) and resuspended in RPMI1640 culture medium supplemented with 10% dialyzed heat inactivated fetal calf serum, 1.5 mM L-glutamine, 100 U penicillin/mL and […] streptomycin/mL (all from PAN Biotech, Aidenbach, Germany). For stimulation, PBMC were seeded at 1×10^5 cells/well, activated with 2 gg/mL phytohaemagglutinin (PHA, Sigma) and incubated with the test compounds for 48 hours. IL-17A, IL-17F and INFγ were then determined in the culture supernatant using a Luminex BioPlex system, following the manufacturer's instructions (BioRad, Munich, Germany). To determine the IC50, compounds were titrated semilogarithmically.
(§3) Cytokines were determined in the aforementioned culture supernatant using the following methods: IL-17A was measured using the human homodimer IL-17A ELISA Ready Set Go Kit from cBioscience (Frankfurt, Germany); IL-17F using the human IL-17F ELI-Pair from Holzel Diagnostica GmbH (K51n, Germany); and IFNγ using the OptEIA human IFN-g ELISA from BD Bioscience (Heidelberg, Germany), all following the manufacturer's instructions.

NKX3.1 mRNA = assay: Expression of AR target genes (qRT-PCR) in 22Rv1: NKX3.1; conditions: Homo sapiens; 22Rv1, 1 μM, 48h; relative to vehicle control (DMSO)
Method: (§4) The prostate cancer cell line 22Rv1 was treated for 48h with 1 μM Example compound 1, 1/1, 2/1, 2/2, 2/3, 2/4, 2/5, 2/6, 2/7, 2/8, 2/9 and 2/10 and reference compounds SR2211 and XY018. RNA was extracted using the RNA isolation kit XS (Macherey-Nagel) and following the manufacture's manual. RNA quantity was measured with the Nanodrop before reverse transcription using Superscript II (Invitrogen #100004925). For the quantitative real-time PCR with SYBR-Green (Qiagen #204074), the following primers were used:
(§5) qRT-PCR was performed using SYBR-Green (Qiagen #204074) reagents in a PCR cycler (Gorbett Research) Rotor Gene RG3000 with the following program: denaturation for 5′ at 95° C.; 40 cycles of 20″ at 95° C. and 15″ at 60° C.″ and at the end of the last cycle, the melting temperature of the products was determined by gradually increasing from 60° C. to 99° C. CT values from all samples were normalized to reference (housekeeping) genes using the mean CT value of the GAPDH and YWHAZ (reference genes). Next the values are put relative to the untreated control (vehicle/DMSO).

IL-17F = assay: Cytokine assay, human PBMC stimulated with PHA: IL-17F; conditions: PHA-activated, 48 hours, read-out: IL-17F inhibition (IC50 range)
Method: as §2, §3

KLK2 mRNA = assay: Expression of AR target genes (qRT-PCR) in 22Rv1: KLK2; conditions: 22Rv1, 1 μM; for KLK2 mRNA level expression: 48 h; for mrna remaining at 1 µM: Homo sapiens, 48h, relative to vehicle control (DMSO)
Method: as §4, §5

AML cell line THP-1 = assay: CellTiter-Blue proliferation assay, THP-1; conditions: Homo sapiens, geometric mean relative IC50, 72 hours, read-out: IC50 range for cell line THP-1
Method: (§6) Aim of this study was to evaluate compounds of Example 1, 1/1, 2/2, 2/5 and 2/6 in a proliferation assays. The 5 test compounds were tested in a CellTiter-Blue® based proliferation assay in three AML cell lines (HL-60, THP-1 and MOLM-13). The compounds were tested at 10 concentrations in half-log increments (highest concentration 30 μM or 100 μM) in duplicates. The incubation period with the applied compounds was fixed to 72 hours.

AR-V7 mRNA = assay: Androgen receptor RNA level expression (qRT-PCR) in 22Rv1: AR-V7; conditions: 22Rv1, 1 μM, 48 h; for mrna remaining at 1 µM: Homo sapiens, normalized to untreated control (vehicle/DMSO)
Method: as §1

FKBP5 mRNA = assay: Expression of AR target genes (qRT-PCR) in 22Rv1: FKBP5; conditions: Homo sapiens; 22Rv1, 1 μM, 48h; relative to vehicle control (DMSO)
Method: as §4, §5

AML cell line HL-60 = assay: CellTiter-Blue proliferation assay, HL-60; conditions: Homo sapiens, geometric mean relative IC50, 72 hours, read-out: IC50 range for cell line HL-60
Method: as §6

AML cell line MOLM-13 = assay: CellTiter-Blue proliferation assay, MOLM-13; conditions: Homo sapiens, geometric mean relative IC50, 72 hours, read-out: IC50 range for cell line MOLM-13
Method: as §6

IL-17A = assay: Cytokine assay, human PBMC stimulated with PHA: IL-17A; conditions: PHA-activated, 48 hours, read-out: IL-17A inhibition (IC50 range)
Method: as §2, §3

RORγt = biological target: T1, RORγt (Homo sapiens, UniProt P51449); assay: RORγt inhibition, Indigo Biosciences Human RAR-related Orphan Receptor, Gamma Reporter Assay System; conditions: luciferase reporter cells, 22-24 h incubation; read-out: IC50 range, RORγt assay
T1 sequence (P51449 269-518 limits assumed): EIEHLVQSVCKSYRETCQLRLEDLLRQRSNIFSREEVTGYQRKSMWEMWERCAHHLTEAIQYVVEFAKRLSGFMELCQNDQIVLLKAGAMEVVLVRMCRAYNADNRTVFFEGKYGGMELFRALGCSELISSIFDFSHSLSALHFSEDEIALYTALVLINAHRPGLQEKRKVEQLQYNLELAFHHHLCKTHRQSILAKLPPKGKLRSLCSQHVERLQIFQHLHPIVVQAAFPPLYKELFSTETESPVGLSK
Method: The in vitro inhibition of RORγt was measured using Indigo Biosciences Human RAR-related Orphan Receptor, Gamma Reporter Assay System (Product #11304001-32) as described in the technical manual. In brief, 200 μL of Reporter Cells is dispensed into wells of the assay plate and preincubated for 4-6 h. Following the pre-incubation period, culture media are discarded and 200 μL/well of the prepared 1×-concentration treatment media are added. Following 22-24 h incubation, treatment media are discarded and Luciferase Detection Reagent is added. The intensity of light emission (in units of ‘Relative Light Units’; RLU) from each assay well is quantified using a plate-reading luminometer. Average values of RLU were determined for each treatment concentration. Non-linear regression analyses were performed and IC50 values determined using GraphPad Prism software. Provided inverse-agonists ursolic acid served as positive control.

[2] = system: prostate cancer cell line DU145; assay: Oncolead sulforhodamin B growth inhibition, DU145; conditions: Homo sapiens, DU-145; sulforhodamin B assay; 72 and 120 h treatment; read-out: GI50 range DU145
Method: (§7) Cell growth was assessed by measuring protein content using sulforhodamin B. Growth inhibition was calculated by (TCMD−T0)/TNCT72h−T0)*100% with TCMD is the tumor growth at 72 h with the respective compound concentration. To is the protein content of the cell line before treatment and TNCT72h is the tumor growth of the DMSO control.

[3] = system: prostate cancer cell line 22RV1; assay: Oncolead sulforhodamin B growth inhibition, 22RV1; conditions: Homo sapiens, sulforhodamin B assay, 72 and 120 h treatment, read-out: GI50 range 22RV1
Method: as §7

[4] = system: prostate cancer cell line VCaP; assay: Oncolead sulforhodamin B growth inhibition, VCaP; conditions: Homo sapiens, VCaP; sulforhodamin B assay; 72 and 120 h treatment; read-out: GI50 range VCAP
Method: as §7

[5] = system: prostate cancer cell line LNCAP; assay: Oncolead sulforhodamin B growth inhibition, LNCAP; conditions: Homo sapiens, sulforhodamin B assay, 72 and 120 h treatment, read-out: GI50 range LNCAP
Method: as §7

[6] = system: prostate cancer cell line PC3; assay: Oncolead sulforhodamin B growth inhibition, PC3; conditions: sulforhodamin B assay; 72 and 120 h treatment; read-out: GI50 range PC3
Method: as §7

Row | Compound | full length AR (AR-FL) mRNA expression [1] | mrna remaining at 1 µM [1] [%] | IC50 (IFNγ) [nM] | mrna remaining at 1 µM (NKX3.1 mRNA) [%] | IC50 (IL-17F) [nM] | KLK2 mRNA level expression (KLK2 mRNA) | mrna remaining at 1 µM (KLK2 mRNA) [%] | IC50 (AML cell line THP-1) [nM] | AR-V7 mRNA expression (AR-V7 mRNA) | mrna remaining at 1 µM (AR-V7 mRNA) [%] | mrna remaining at 1 µM (FKBP5 mRNA) [%] | IC50 (AML cell line HL-60) [nM] | IC50 (AML cell line MOLM-13) [nM] | IC50 (IL-17A) [nM] | IC50 (RORγt) [nM] | GI50 [2] [nM] | GI50 [3] [nM] | GI50 [4] [nM] | GI50 [5] [nM] | GI50 [6] [nM]
1 | C[C@]1(O)C[C@@H](n2ncc(-c3onc(-c4c(F)cccc4Cl)c3-c3ncccn3)c2C(F)(F)F)C1 [2/5] | strong reduction | 45.4 | < 25 | 30.7 | < 25 | strong inhibition | 37.7 | < 10 | strong reduction | 23.9 | 27.1 | < 10 | < 10 | < 25 |  |  |  |  |  | 
2 | C[C@]1(O)C[C@@H](n2ncc(-c3onc(-c4ccccc4Cl)c3-c3ncccn3)c2C(F)(F)F)C1 [2/6] | strong reduction | 54.9 | < 25 | 44 | < 25 | strong inhibition | 42.8 | 10 to 100 | strong reduction | 30.4 | 33.8 | < 10 | < 10 | < 25 |  |  |  |  |  | 
3 | CC(C)(O)CCn1ncc(-c2onc(-c3cccc(OCCN4CCOCC4)c3Cl)c2-c2ncccn2)c1C(F)(F)F [2/7] | strong reduction | 42.5 | < 25 | 30.5 | < 25 | strong inhibition | 43.6 |  | strong reduction | 22.8 | 27.5 |  |  | 25 to 100 | 100 to 1000 |  |  |  |  | 
4 | CC(C)(O)CCn1ncc(-c2onc(-c3c(F)cccc3Cl)c2-c2ncccn2)c1C(F)F [Example 1/2, 4-(4-(3-(2-Chloro-6-fluorophenyl)-4-(pyrimidin-2-yl)isoxazol-5-yl)-5-(difluoromethyl)-1H-pyrazol-1-yl)-2-methylbutan-2-ol] | strong reduction | 52.4 |  |  |  |  |  |  | strong reduction | 50.9 |  |  |  |  | 10 to 100 |  |  |  |  | 
5 | Fc1cccc(Cl)c1-c1noc(-c2cnn(-c3cccc(Cl)c3)c2C(F)(F)F)c1COC1CC1 [Example 2, 3-(2-Chloro-6-fluorophenyl)-5-(1-(3-chlorophenyl)-5-(trifluoromethyl)-1H-pyrazol-4-yl)-4-(cyclopropoxymethyl)isoxazole] |  |  |  |  |  |  |  |  |  |  |  |  |  |  | < 10 |  |  |  |  | 
6 | CNC(=O)c1ccc(N2C(=S)N(c3ccc(C#N)c(C(F)(F)F)c3)C(=O)C2(C)C)cc1F [enzalutamide, reference compound] |  |  |  |  |  |  |  |  |  |  |  |  |  |  |  | ≥ 5000 | ≥ 5000 | 100 to 5000 | 100 to 5000 | ≥ 5000
7 | CC(=O)O[C@H]1C(=O)[C@@]2(C)[C@H]([C@H](OC(=O)c3ccccc3)[C@]3(O)C[C@H](OC(=O)[C@H](O)[C@@H](NC(=O)c4ccccc4)c4ccccc4)C(C)=C1C3(C)C)[C@]1(OC(C)=O)CO[C@@H]1C[C@@H]2O [paclitaxel, reference compound] |  |  |  |  |  |  |  |  |  |  |  |  |  |  |  | < 25 | < 25 | < 25 | < 25 | < 25
